Reference: patent publication US20070135490A1, “Phenetanolamine derivatives” (priority 2003, published 2007)

Molecular target: T1, human beta-2 receptor (Homo sapiens, UniProt P07550)
T1 construct: expressed in transfected cells; host or cells: Chinese hamster ovary cells (whole cells or membranes derived from them)
Experiment: Chinese hamster ovary cells co-expressing the human receptor with a reporter gene, cAMP measurement in whole cells or membranes (Method 2)
Assay type: cell-based
Details: CHO cells or membranes, read-out: pEC50 at the human beta-2 receptor (converted)
Method: Potency of compounds of the invention at the human beta 2, 1 and 3 receptors was also determined using Chinese hamster ovary cells co-expressing the human receptor with a reporter gene. Studies were performed using either whole cells or membranes derived from those cells.
The three beta-receptors are coupled via the Gs G-protein to cause a simulation of adenylate cyclase resulting in increased levels of cAMP in the cell. For direct cAMP measurements either membranes or cells have been used with either the HitHunter enzyme fragment complementation kit (DiscoveRx) or the FP^2 fluorescence polarisation kit (Perkin Elmer) to quantify the levels of cAMP present. These assays provide a measure of agonist potency and intrinsic activity of the compounds at the various receptors. […]
In this assay the potency of compounds at the human beta-2 receptor is expressed as a pEC50 value. Compounds of examples 12-26, 28-50 and 52-64 had pEC50 values greather than 6. […] No result is available for the compound of example 51.

T1 sequence (P07550 whole entry): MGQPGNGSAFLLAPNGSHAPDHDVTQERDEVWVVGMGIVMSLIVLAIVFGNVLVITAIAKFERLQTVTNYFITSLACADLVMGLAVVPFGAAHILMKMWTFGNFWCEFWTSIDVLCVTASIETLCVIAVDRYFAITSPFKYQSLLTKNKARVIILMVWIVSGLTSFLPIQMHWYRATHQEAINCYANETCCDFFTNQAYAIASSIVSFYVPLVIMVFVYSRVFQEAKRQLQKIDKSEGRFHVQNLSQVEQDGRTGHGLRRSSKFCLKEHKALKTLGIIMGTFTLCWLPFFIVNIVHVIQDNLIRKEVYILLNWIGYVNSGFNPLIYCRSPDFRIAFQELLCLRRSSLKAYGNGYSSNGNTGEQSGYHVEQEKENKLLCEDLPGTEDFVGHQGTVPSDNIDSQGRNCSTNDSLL

EC50, < 1 µM:
OCc1cc([C@@H](O)CNCCc2cccc(COCCOc3ccccc3)c2)ccc1O [Example 38, Formic acid compound with 2-(hydroxymethyl)-4-{(1R)-1-hydroxy-2-[(2-{3-[(2-phenoxyethoxy)methyl]phenyl}ethyl)amino]ethyl}phenol (1:1)]
OCc1cc([C@@H](O)CNCCc2cccc(COCCc3cccc(F)c3)c2)ccc1O [Example 39, Formic acid compound with 4-((1R)-2-{[2-(3-{[2-(3-fluorophenyl)ethoxy]methyl}phenyl)ethyl]amino}-1-hydroxyethyl)-2-(hydroxymethyl)phenol (1:1)]
OCc1cc([C@@H](O)CNCCc2cccc(COCCc3ccc(F)cc3)c2)ccc1O [Example 40, Formic acid compound with 4-((1R)-2-{[2-(3-{[2-(4-fluorophenyl)ethoxy]methyl}phenyl)ethyl]amino}-1-hydroxyethyl)-2-(hydroxymethyl)phenol (1:1)]
OCc1cc([C@@H](O)CNCCc2cccc(COCCc3ccccc3F)c2)ccc1O [Example 41, Formic acid compound with 4-((1R)-2-{[2-(3-{[2-(2-fluorophenyl)ethoxy]methyl}phenyl)ethyl]amino}-1-hydroxyethyl)-2-(hydroxymethyl)phenol (1:1)]
N#Cc1cccc(COCc2cccc(CCNC[C@H](O)c3ccc(O)c(CO)c3)c2)c1 [Example 42, Formic acid compound with 3-[({3-[2-({(2R)-2-hydroxy-2-[4-hydroxy-3-(hydroxymethyl)phenyl]ethyl}amino)ethyl]benzyl}oxy)methyl]benzonitrile (1:1)]
N#Cc1ccc(COCc2cccc(CCNC[C@H](O)c3ccc(O)c(CO)c3)c2)cc1 [Example 43, Formic acid compound with 4-[({3-[2-({(2R)-2-hydroxy-2-[4-hydroxy-3-(hydroxymethyl)phenyl]ethyl}amino)ethyl]benzyl}oxy)methyl]benzonitrile (1:1)]
C[C@@H](OCc1cccc(CCNC[C@H](O)c2ccc(O)c(CO)c2)c1)c1ccccc1 [Example 44, Formic acid compound with 2-(hydroxymethyl)-4-[(1R)-1-hydroxy-2-({2-[3-({[(1R)-1-phenylethyl]oxy}methyl)phenyl]ethyl}amino)ethyl]phenol (1:1)]
C[C@H](OCc1cccc(CCNC[C@H](O)c2ccc(O)c(CO)c2)c1)c1ccccc1 [Example 45, Formic acid compound with 2-(hydroxymethyl)-4-[(1R)-1-hydroxy-2-({2-[3-({[(1S)-1-phenylethyl]oxy}methyl)phenyl]ethyl}amino)ethyl]phenol (1:1)]
Cc1cc(C)cc(COCc2cccc(CCNC[C@H](O)c3ccc(O)c(CO)c3)c2)c1 [Example 46, Formic acid compound with 4-((1R)-2-{[2-(3-{[(3,5-dimethylbenzyl)oxy]methyl}phenyl)ethyl]amino}-1-hydroxyethyl)-2-(hydroxymethyl)phenol (1:1)]
OCc1cc([C@@H](O)CNCCc2cccc(COCc3c(Cl)cccc3Cl)c2)ccc1O [Example 47, Formic acid compound with 4-((1R)-2-{[2-(3-{[(2,6-dichlorobenzyl)oxy]methyl}phenyl)ethyl]amino}-1-hydroxyethyl)-2-(hydroxymethyl)phenol (1:1)]
OCc1cc([C@@H](O)CNCCc2cccc(COCc3ccccc3F)c2)ccc1O [Example 48, Formic acid compound with 4-((1R)-2-{[2-(3-{[(2-fluorobenzyl)oxy]methyl}phenyl)ethyl]amino}-1-hydroxyethyl)-2-(hydroxymethyl)phenol (1:1)]
OCc1cc([C@@H](O)CNCCc2cccc(COCc3cccc(F)c3)c2)ccc1O [Example 49, Formic acid compound with 4-((1R)-2-{[2-(3-{[(3-fluorobenzyl)oxy]methyl}phenyl)ethyl]amino}-1-hydroxyethyl)-2-(hydroxymethyl)phenol (1:1)]
OCc1cc([C@@H](O)CNCCc2cccc(COCc3ccc(F)cc3)c2)ccc1O [Example 50, Formic acid compound with 4-((1R)-2-{[2-(3-{[(4-fluorobenzyl)oxy]methyl}phenyl)ethyl]amino}-1-hydroxyethyl)-2-(hydroxymethyl)phenol (1:1)]
NC(=O)c1cccc(COCCOCc2cccc(CCNC[C@H](O)c3ccc(O)c(CO)c3)c2)c1 [Example 52, Formic acid compound with 3-{[2-({3-[2-({(2R)-2-hydroxy-2-[4-hydroxy-3-(hydroxymethyl)phenyl]ethyl}amino)ethyl]benzyl}oxy)ethoxy]methyl}benzamide (1:1)]
NC(=O)c1cccc(COCc2cccc(CCNC[C@H](O)c3ccc(O)c(CO)c3)c2)c1 [Example 53, Formic acid compound with 3-[({3-[2-({(2R)-2-hydroxy-2-[4-hydroxy-3-(hydroxymethyl)phenyl]ethyl}amino)ethyl]benzyl}oxy)methyl]benzamide (1:1)]
NC(=O)c1ccc(COCc2cccc(CCNC[C@H](O)c3ccc(O)c(CO)c3)c2)cc1 [Example 54, Formic acid compound with 4-[({3-[2-({(2R)-2-hydroxy-2-[4-hydroxy-3-(hydroxymethyl)phenyl]ethyl}amino)ethyl]benzyl}oxy)methyl]benzamide (1:1)]
NS(=O)(=O)c1cccc(CCOCc2cccc(CCNC[C@H](O)c3ccc(O)c(CO)c3)c2)c1 [Example 55, Formic acid compound with 3-[2-({3-[2-({(2R)-2-hydroxy-2-[4-hydroxy-3-(hydroxymethyl)phenyl]ethyl}amino)ethyl]benzyl}oxy)ethyl]benzenesulfonamide (1:1)]
NS(=O)(=O)c1cccc(CCCOCc2cccc(CCNC[C@H](O)c3ccc(O)c(CO)c3)c2)c1 [Example 56, Formic acid compound with 3-[3-({3-[2-({(2R)-2-hydroxy-2-[4-hydroxy-3-(hydroxymethyl)phenyl]ethyl}amino)ethyl]benzyl}oxy)propyl]benzenesulfonamide (1:1)]
OCc1cc([C@@H](O)CNCCc2cccc(COCCCCc3c(Cl)cccc3Cl)c2)ccc1O [Example 57, Formic acid compound with 4-((1R)-2-{[2-(3-{[4-(2,6-dichlorophenyl)butoxy]methyl}phenyl)ethyl]amino}-1-hydroxyethyl)-2-(hydroxymethyl)phenol (1:1)]
NC(=O)Nc1cccc(CCCCOCc2cccc(CCNC[C@H](O)c3ccc(O)c(CO)c3)c2)c1 [Example 58, Formic acid compound with N-{3-[4-({3-[2-({(2R)-2-hydroxy-2-[4-hydroxy-3-(hydroxymethyl)phenyl]ethyl}amino)ethyl]benzyl}oxy)butyl]phenyl}urea (1:1)]
CC(OCCOCc1cccc(CCNC[C@H](O)c2ccc(O)c(CO)c2)c1)c1ccccc1 (stereo partly drawn) [Example 59, Formic acid compound with 2-(hydroxymethyl)-4-((1R)-1-hydroxy-2-{[2-(3-{[2-(1-phenylethoxy)ethoxy]methyl}phenyl)ethyl]amino}ethyl)phenol (1:1)]
O=S(=O)(c1cccc(CCOCc2cccc(CCNC[C@H](O)c3ccc(O)c(CO)c3)c2)c1)C1CCCC1 [Example 60, Formic acid compound with 4-[(1R)-2-({2-[3-({2-[3-(cyclopentylsulfonyl)phenyl]ethoxy}methyl)phenyl]ethyl}amino)-1-hydroxyethyl]-2-(hydroxymethyl)phenol (1:1)]
O=S(=O)(c1cccc(CCCCOCc2cccc(CCNC[C@H](O)c3ccc(O)c(CO)c3)c2)c1)C1CCCC1 [Example 61, Formic acid compound with 4-[(1R)-2-({2-[3-({4-[3-(cyclopentylsulfonyl)phenyl]butoxy}methyl)phenyl]ethyl}amino)-1-hydroxyethyl]-2-(hydroxymethyl)phenol (1:1)]
CS(=O)(=O)c1cccc(CCCCOCc2cccc(CCNC[C@H](O)c3ccc(O)c(CO)c3)c2)c1 [Example 62, Formic acid compound with 2-(hydroxymethyl)-4-[(1R)-1-hydroxy-2-({2-[3-({4-[3-(methylsulfonyl)phenyl]butoxy}methyl)phenyl]ethyl}amino)ethyl]phenol (1:1)]
OCc1cc([C@@H](O)CNCCc2cccc(COCCCc3c(Cl)cccc3Cl)c2)ccc1O [Example 63, Formic acid compound with 4-((1R)-2-{[2-(3-{[3-(2,6-dichlorophenyl)propoxy]methyl}phenyl)ethyl]amino}-1-hydroxyethyl)-2-(hydroxymethyl)phenol (1:1)]
NS(=O)(=O)c1cccc(COCc2cccc(CCNC[C@H](O)c3ccc(O)c(CO)c3)c2)c1 [Example 64, 3-[({3-[2-({(2R)-2-Hydroxy-2-[4-hydroxy-3-(hydroxymethyl)phenyl]ethyl}amino)ethyl]benzyl}oxy)methyl]benzenesulfonamide acetate]
